ChEMBL document CHEMBL1139662, “Synthesis and biological investigation of new 4''-malonyl tethered derivatives of erythromycin and clarithromycin” (Bioorg Med Chem Lett, 2006)
Values after ≈ are worked out from the molar mass of the structure shown.

Columns and labels:
Escherichia coli [1] = experiment: Antibacterial activity against macrolide-sensitive Escherichia coli HN818; assay type: functional
Escherichia coli [2] = experiment: Inhibition of protein synthesis in Escherichia coli cell-free translational system; assay type: functional

| SMILES | MIC (Escherichia coli [1]) [µg/mL] | IC50 (Escherichia coli [2]) [µM] |
| --- | --- | --- |
| CC[C@H]1OC(=O)[C@H](C)[C@@H](OC2C[C@@](C)(OC)[C@@H](OC(=O)CC(=O)OCc3ccccc3)[C@H](C)O2)[C@H](C)[C@@H](OC2O[C@H](C)C[C@H](N(C)C)[C@H]2O)[C@](C)(O)C[C@@H](C)C(=O)[C@H](C)[C@@H](O)[C@]1(C)O (stereo partly drawn) | 8 (≈ 8.79 µM) | 1.1 |
| CC[C@H]1OC(=O)[C@H](C)[C@@H](OC2C[C@@](C)(OC)[C@@H](OC(=O)CC(=O)N(C)CCN(C)C)[C@H](C)O2)[C@H](C)[C@@H](OC2O[C@H](C)C[C@H](N(C)C)[C@H]2O)[C@](C)(O)C[C@@H](C)C(=O)[C@H](C)[C@@H](O)[C@]1(C)O (stereo partly drawn) | 8 (≈ 8.85 µM) | 1.1 |
| CC[C@H]1OC(=O)[C@H](C)[C@@H](OC2C[C@@](C)(OC)[C@@H](OC(=O)CC(=O)O)[C@H](C)O2)[C@H](C)[C@@H](OC2O[C@H](C)C[C@H](N(C)C)[C@H]2O)[C@](C)(OC)C[C@@H](C)C(=O)[C@H](C)[C@@H](O)[C@]1(C)O (stereo partly drawn) | 128 (≈ 153 µM) | 3.9 |
| CC[C@H]1OC(=O)[C@H](C)[C@@H](OC2C[C@@](C)(OC)[C@@H](OC(=O)CC(=O)OCc3ccccc3)[C@H](C)O2)[C@H](C)[C@@H](OC2O[C@H](C)C[C@H](N(C)C)[C@H]2O)[C@](C)(OC)C[C@@H](C)C(=O)[C@H](C)[C@@H](O)[C@]1(C)O (stereo partly drawn) | 8 (≈ 8.66 µM) | 1.2 |
| CC[C@H]1OC(=O)[C@H](C)[C@@H](OC2C[C@@](C)(OC)[C@@H](OC(=O)CC(=O)O)[C@H](C)O2)[C@H](C)[C@@H](OC2O[C@H](C)C[C@H](N(C)C)[C@H]2O)[C@](C)(O)C[C@@H](C)C(=O)[C@H](C)[C@@H](O)[C@]1(C)O (stereo partly drawn) | 128 (≈ 156 µM) | 3.7 |
| CC[C@H]1OC(=O)[C@H](C)[C@@H](O[C@H]2C[C@@](C)(OC)[C@@H](O)[C@H](C)O2)[C@H](C)[C@@H](O[C@@H]2O[C@H](C)C[C@H](N(C)C)[C@H]2O)[C@](C)(OC)C[C@@H](C)C(=O)[C@H](C)[C@@H](O)[C@]1(C)O [CLARITHROMYCIN] | 2 (≈ 2.67 µM) | – |
| CC[C@H]1OC(=O)[C@H](C)[C@@H](O[C@H]2C[C@@](C)(OC)[C@@H](O)[C@H](C)O2)[C@H](C)[C@@H](O[C@@H]2O[C@H](C)C[C@H](N(C)C)[C@H]2O)[C@](C)(O)C[C@@H](C)C(=O)[C@H](C)[C@@H](O)[C@]1(C)O [ERYTHROMYCIN] | 2 (≈ 2.73 µM) | 0.9 |
